As a reminder, the IC50 is the midpoint of a concentration-inhibition curve.

Assay [1] concerns the target T1, human IRE1 (hIRE1, IRE1α) (Homo sapiens, UniProt O75460).
T1 construct: gene ERN1; aa 465-977, His & GST Tag
Description: MST displacement of fluorescent Kinase Tracer […] (positive control). In kind it is binding.

For assay [2], the target named is T1, human IRE1 (hIRE1, IRE1α). Description: in vitro RNase cleavage assay, recombinant IRE1, fluorescence-quenched mini XBP1 RNA probe. In kind it is biochemical.

SMILES strings stand for the structures.

T1 sequence (O75460 465-977): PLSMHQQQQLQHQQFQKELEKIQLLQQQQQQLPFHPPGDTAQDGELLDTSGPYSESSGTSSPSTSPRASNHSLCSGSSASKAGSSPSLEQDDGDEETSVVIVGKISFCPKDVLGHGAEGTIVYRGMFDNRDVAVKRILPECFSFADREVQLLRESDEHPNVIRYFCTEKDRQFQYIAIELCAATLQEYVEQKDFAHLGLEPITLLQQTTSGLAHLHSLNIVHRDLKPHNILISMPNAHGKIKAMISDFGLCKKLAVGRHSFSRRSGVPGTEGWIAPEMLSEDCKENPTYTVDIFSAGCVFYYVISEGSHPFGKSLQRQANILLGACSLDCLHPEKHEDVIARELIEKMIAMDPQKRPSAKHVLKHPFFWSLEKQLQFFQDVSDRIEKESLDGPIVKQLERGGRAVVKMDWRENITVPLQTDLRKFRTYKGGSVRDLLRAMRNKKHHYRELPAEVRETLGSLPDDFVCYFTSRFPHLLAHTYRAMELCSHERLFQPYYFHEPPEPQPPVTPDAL

Consider `Cc1ccc2c(NS(=O)(=O)c3ccccc3Cl)cccc2c1Oc1ncccc1-c1ccnc(N[C@H]2CCCNC2)n1` [KIRA8], for which, in assay [1], the 50% inhibitory concentration (IC50) was 73 ± 5 nM.

`O=c1c(O)c(-c2ccc(O)c(O)c2)oc2cc(O)cc(O)c12` [Qe, Quercetin]: the IC50 in assay [2] turned out to be 272 ± 150 nM.

With `C[C@@H]1O[C@@H](Oc2c(-c3ccc(O)c(O)c3)oc3cc(O)cc(O)c3c2=O)[C@H](O)[C@H](O)[C@H]1O` [Qi, Quercitrin], the IC50 in assay [2] was determined as 226 ± 70 nM.

Values taken from publication PMC10767055, “Different binding modalities of quercetin to inositol-requiring enzyme 1 of S. cerevisiae and human lead to opposite regulation” (Communications Chemistry, 2024).
